Tests used:
Assay in all cases: DSF
Format in all cases: binding
NEK1 = biological target: T1, NEK1 (Homo sapiens, UniProt Q96PY6)
T1 construct: purchased in-house DSF panel (SGC Frankfurt)
T1 sequence (Q96PY6 1-328): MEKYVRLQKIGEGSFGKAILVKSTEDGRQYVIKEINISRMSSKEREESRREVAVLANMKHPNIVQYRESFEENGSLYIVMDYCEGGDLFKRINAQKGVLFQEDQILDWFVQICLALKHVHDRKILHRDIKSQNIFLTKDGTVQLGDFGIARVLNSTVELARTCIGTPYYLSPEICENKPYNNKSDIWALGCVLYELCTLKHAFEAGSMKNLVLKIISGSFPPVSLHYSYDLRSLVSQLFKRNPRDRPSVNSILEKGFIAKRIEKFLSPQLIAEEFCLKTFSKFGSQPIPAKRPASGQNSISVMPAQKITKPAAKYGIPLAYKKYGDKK
Description: (§2) Recombinant protein kinase domains with a concentration of 2 μM were mixed with a 10 μM compound solution in DMSO, 20 mM HEPES, pH 7.5, and 500 mM NaCl. SYPRO Orange (5000×, Invitrogen) was added as a fluorescence probe (1 µl per mL). Subsequently, temperature-dependent protein unfolding profiles were measured, using the QuantStudio™ 5 realtime PCR machine (Thermo Fisher, Waltham, MA, USA). […] The temperature was raised with a step rate of 3 °C per minute. Data points were analyzed with the internal software (Thermal Shift SoftwareTM Version 1.4, Thermo Fisher) using the Boltzmann equation to determine the inflection point of the transition curve [56]. Differences in melting temperature are given as ΔTm values in °C. Measurements were performed in duplicates.

PHKG2 = biological target: T2, PHKG2 (Homo sapiens, UniProt P15735)
T2 construct: purchased in-house DSF panel (SGC Frankfurt)
T2 sequence (P15735 6-293): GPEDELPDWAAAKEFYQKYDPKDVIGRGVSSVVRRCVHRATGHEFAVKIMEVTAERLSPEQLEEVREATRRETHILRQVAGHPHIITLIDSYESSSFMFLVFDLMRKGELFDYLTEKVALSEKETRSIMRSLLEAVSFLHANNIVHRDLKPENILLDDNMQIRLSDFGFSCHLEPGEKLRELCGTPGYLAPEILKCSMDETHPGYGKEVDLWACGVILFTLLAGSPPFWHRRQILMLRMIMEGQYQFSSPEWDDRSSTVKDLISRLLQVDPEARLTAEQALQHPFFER
Description: (§1) Recombinant protein kinase domains with a concentration of 2 μM were mixed with a 10 μM compound solution in DMSO, 20 mM HEPES, pH 7.5, and 500 mM NaCl. SYPRO Orange (5000×, Invitrogen) was added as a fluorescence probe (1 µl per mL). Subsequently, temperature-dependent protein unfolding profiles were measured, using the QuantStudio™ 5 realtime PCR machine (Thermo Fisher, Waltham, MA, USA). […] The temperature was raised with a step rate of 3 °C per minute. Data points were analyzed with the internal software (Thermal Shift SoftwareTM Version 1.4, Thermo Fisher) using the Boltzmann equation to determine the inflection point of the transition curve. Differences in melting temperature are given as ΔTm values in °C. Measurements were performed in duplicates.

CDKL1 = biological target: T3, CDKL1 (Homo sapiens, UniProt Q00532)
T3 construct: purchased in-house DSF panel (SGC Frankfurt)
T3 sequence (Q00532 1-303): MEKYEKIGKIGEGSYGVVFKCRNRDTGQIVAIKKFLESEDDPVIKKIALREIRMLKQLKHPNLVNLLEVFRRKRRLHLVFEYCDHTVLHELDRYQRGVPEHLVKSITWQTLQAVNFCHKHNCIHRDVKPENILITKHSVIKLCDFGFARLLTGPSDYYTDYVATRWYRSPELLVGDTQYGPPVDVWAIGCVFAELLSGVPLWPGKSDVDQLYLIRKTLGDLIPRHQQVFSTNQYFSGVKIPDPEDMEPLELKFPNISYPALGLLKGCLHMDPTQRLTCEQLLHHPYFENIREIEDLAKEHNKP
Description: as §1

FES = biological target: T4, FES (Homo sapiens, UniProt P07332)
T4 construct: purchased in-house DSF panel (SGC Frankfurt)
T4 sequence (P07332 whole entry): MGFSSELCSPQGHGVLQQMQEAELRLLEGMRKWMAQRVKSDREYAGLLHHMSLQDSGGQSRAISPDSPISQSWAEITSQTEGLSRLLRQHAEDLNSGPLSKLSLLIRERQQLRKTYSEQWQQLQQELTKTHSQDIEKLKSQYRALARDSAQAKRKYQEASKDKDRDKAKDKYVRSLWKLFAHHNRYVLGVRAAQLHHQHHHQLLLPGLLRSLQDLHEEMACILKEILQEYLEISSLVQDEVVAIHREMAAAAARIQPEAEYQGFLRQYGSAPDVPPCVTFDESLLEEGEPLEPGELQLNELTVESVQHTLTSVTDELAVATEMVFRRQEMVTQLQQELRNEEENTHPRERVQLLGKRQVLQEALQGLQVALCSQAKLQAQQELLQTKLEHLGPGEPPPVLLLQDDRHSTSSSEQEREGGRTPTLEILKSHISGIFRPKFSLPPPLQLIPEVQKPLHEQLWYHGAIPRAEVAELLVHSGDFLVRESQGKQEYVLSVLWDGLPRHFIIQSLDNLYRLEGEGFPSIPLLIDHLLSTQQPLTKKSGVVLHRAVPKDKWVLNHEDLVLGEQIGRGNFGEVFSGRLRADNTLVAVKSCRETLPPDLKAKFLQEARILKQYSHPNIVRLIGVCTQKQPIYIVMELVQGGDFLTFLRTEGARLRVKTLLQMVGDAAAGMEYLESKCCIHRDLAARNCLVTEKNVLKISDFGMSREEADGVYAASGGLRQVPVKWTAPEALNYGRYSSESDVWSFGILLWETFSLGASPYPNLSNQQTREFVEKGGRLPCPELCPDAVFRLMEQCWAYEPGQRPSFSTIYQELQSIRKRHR
Description: as §1

CAMK1D = biological target: T5, CAMK1D (Homo sapiens, UniProt Q8IU85)
T5 construct: purchased in-house DSF panel (SGC Frankfurt)
T5 sequence (Q8IU85 23-279): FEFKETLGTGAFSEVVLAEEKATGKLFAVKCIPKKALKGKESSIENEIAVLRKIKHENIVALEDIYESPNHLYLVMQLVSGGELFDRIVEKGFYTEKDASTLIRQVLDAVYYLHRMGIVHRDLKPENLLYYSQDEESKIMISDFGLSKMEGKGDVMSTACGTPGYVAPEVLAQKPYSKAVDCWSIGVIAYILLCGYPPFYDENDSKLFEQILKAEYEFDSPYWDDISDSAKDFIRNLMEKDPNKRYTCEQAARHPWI
Description: as §1

CHEK2 = biological target: T6, CHEK2 (Homo sapiens, UniProt O96017)
T6 construct: purchased in-house DSF panel (SGC Frankfurt)
T6 sequence (O96017 210-531): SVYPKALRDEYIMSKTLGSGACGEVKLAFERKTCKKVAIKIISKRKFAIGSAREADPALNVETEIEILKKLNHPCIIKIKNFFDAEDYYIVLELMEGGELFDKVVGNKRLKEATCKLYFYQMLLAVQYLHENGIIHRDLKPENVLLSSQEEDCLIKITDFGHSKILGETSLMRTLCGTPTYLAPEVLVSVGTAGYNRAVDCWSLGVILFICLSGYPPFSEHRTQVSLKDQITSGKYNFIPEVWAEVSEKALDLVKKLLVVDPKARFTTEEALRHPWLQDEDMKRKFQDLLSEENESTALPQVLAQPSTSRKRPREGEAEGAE
Description: as §1

VRK1 = biological target: T7, VRK1 (Homo sapiens, UniProt Q99986)
T7 construct: purchased in-house DSF panel (SGC Frankfurt)
T7 sequence (Q99986 1-396): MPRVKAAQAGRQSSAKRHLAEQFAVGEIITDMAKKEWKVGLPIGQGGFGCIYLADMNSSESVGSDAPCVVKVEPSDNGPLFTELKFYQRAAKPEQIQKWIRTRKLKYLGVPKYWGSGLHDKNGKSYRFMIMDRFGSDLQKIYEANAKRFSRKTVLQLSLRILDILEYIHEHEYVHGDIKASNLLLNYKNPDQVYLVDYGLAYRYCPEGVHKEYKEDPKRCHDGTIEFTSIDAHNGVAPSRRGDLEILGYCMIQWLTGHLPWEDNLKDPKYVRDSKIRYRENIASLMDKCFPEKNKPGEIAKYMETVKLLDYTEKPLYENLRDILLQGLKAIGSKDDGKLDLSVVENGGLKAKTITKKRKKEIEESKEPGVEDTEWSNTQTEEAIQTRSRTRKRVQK
Description: as §1

PAK4 = biological target: T8, PAK4 (Homo sapiens, UniProt O96013)
T8 construct: purchased in-house DSF panel (SGC Frankfurt)
T8 sequence (O96013 291-591): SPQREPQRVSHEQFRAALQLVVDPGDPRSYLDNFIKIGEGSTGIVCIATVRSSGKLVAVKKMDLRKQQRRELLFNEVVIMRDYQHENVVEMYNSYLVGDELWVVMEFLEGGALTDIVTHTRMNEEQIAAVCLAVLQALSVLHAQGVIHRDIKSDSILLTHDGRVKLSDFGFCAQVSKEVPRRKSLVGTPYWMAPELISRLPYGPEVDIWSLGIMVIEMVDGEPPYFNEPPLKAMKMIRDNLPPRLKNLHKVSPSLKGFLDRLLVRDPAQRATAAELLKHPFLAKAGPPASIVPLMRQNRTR
Description: as §1

CAMK1G = biological target: T9, CAMK1G (Homo sapiens, UniProt Q96NX5)
T9 construct: purchased in-house DSF panel (SGC Frankfurt)
T9 sequence (Q96NX5 whole entry): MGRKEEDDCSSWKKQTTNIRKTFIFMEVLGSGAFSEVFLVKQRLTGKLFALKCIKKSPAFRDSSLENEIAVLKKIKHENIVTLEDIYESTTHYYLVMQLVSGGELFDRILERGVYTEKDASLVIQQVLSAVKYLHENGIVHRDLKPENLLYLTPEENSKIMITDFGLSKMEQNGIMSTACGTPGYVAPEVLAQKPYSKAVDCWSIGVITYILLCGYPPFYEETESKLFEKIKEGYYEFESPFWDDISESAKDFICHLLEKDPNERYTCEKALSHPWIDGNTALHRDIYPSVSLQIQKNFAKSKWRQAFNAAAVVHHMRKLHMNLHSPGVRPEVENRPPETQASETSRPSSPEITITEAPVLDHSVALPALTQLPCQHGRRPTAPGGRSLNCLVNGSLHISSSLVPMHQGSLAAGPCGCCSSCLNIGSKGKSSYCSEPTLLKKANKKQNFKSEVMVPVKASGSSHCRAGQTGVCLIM
Description: as §1

PKMYT1 = biological target: T10, PKMYT1 (Homo sapiens, UniProt Q99640)
T10 construct: purchased in-house DSF panel (SGC Frankfurt)
T10 sequence (Q99640 75-362): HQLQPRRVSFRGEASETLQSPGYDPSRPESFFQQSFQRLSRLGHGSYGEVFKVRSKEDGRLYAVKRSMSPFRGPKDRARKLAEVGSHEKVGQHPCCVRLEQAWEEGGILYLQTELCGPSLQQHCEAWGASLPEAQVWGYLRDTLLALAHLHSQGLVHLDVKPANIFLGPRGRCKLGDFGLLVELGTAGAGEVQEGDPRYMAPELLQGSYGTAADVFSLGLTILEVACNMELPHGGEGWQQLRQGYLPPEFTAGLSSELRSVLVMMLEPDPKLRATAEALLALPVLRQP
Description: as §1

FGFR1 = biological target: T11, FGFR1 (Homo sapiens, UniProt P11362)
T11 construct: purchased in-house DSF panel (SGC Frankfurt)
T11 sequence (P11362 456-765): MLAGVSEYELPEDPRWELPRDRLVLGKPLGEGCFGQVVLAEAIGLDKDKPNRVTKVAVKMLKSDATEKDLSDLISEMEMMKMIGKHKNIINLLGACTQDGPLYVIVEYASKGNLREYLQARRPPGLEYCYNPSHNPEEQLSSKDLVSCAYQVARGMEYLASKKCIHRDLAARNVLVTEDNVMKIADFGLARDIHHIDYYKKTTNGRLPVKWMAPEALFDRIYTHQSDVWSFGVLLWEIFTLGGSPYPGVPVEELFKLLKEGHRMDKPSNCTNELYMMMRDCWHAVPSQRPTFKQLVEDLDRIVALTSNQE
Description: as §1

STK17B = biological target: T12, STK17B (Homo sapiens, UniProt O94768)
T12 construct: purchased in-house DSF panel (SGC Frankfurt)
T12 sequence (O94768 25-329): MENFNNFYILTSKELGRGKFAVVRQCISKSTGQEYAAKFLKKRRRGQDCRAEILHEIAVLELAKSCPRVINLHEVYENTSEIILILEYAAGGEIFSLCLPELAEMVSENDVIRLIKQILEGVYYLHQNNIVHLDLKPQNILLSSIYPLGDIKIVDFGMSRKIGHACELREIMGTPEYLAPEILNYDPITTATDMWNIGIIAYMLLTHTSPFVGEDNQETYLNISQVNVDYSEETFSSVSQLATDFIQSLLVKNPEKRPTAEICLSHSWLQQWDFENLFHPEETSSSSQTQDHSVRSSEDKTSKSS
Description: as §2

RIOK1 = biological target: T13, RIOK1 (Homo sapiens, UniProt Q9BRS2)
T13 construct: purchased in-house DSF panel (SGC Frankfurt)
T13 sequence (Q9BRS2 143-494): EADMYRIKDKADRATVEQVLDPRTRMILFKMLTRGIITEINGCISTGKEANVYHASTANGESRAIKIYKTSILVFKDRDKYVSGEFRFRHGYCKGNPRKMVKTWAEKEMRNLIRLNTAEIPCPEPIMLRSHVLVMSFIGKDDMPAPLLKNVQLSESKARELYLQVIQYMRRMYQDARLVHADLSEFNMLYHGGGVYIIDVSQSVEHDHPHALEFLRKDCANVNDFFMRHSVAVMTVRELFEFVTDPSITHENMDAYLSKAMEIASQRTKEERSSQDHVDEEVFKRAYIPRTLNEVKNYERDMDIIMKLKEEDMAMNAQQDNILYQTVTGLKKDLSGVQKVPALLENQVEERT
Description: as §1

PDK4 = biological target: T14, PDK4 (Homo sapiens, UniProt Q16654)
T14 construct: purchased in-house DSF panel (SGC Frankfurt)
T14 sequence (Q16654 whole entry): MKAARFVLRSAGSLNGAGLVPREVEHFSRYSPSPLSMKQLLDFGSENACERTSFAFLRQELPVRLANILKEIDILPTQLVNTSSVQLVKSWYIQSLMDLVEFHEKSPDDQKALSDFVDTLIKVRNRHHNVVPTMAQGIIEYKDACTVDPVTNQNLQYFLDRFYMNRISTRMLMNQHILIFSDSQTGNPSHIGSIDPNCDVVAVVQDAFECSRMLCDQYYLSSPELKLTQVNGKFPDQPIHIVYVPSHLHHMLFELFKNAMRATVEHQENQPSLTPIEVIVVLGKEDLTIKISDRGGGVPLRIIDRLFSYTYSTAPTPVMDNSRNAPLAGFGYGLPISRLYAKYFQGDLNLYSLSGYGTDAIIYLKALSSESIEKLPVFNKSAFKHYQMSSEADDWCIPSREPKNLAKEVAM
Description: as §1

Row | Structure (SMILES) | ΔTm NEK1 (NEK1) [°C] | ΔTm PHKG2 (PHKG2) [°C] | ΔTm CDKL1 (CDKL1) [°C] | ΔTm FES (FES) [°C] | ΔTm CAMK1D (CAMK1D) [°C] | ΔTm CHEK2 (CHEK2) [°C] | ΔTm VRK1 (VRK1) [°C] | ΔTm PAK4 (PAK4) [°C] | ΔTm CAMK1G (CAMK1G) [°C] | ΔTm PKMYT1 (PKMYT1) [°C] | ΔTm FGFR1 (FGFR1) [°C] | ΔTm STK17B (STK17B) [°C] | ΔTm RIOK1 (RIOK1) [°C] | ΔTm PDK4 (PDK4) [°C]
1 | CC(C)OC(=O)c1cc(Nc2ccnc(NCc3ccc(NC(=O)OC(C)(C)C)cc3)n2)n[nH]1 [42d, isopropyl 3-((2-((4-((tert-butoxycarbonyl)amino)benzyl)amino)pyrimidin-4-yl)amino)-1H-pyrazole-5-carboxylate] | 0.2 | -0.2 | 1.7 | 0.1 | -2.4 | 0.6 | 0.5 | -0.2 | -0.2 | -3.2 | 0.4 | -2.8 |  | 
2 | CC(C)(C)OC(=O)Nc1ccc(CNc2nccc(Nc3cc(C(=O)OC(C)(C)C)[nH]n3)n2)cc1 [43d, tert-butyl 3-((2-((4-((tert-butoxycarbonyl)amino)benzyl)amino)pyrimidin-4-yl)amino)-1H-pyrazole-5-carboxylate] | 0.1 | 0.5 | 2.1 | 1.1 | -2.9 | 1.3 | 0.9 | -0.9 | -0.7 | -2.0 | 0.6 | -2.5 |  | 
3 | COC(=O)c1cc(Nc2ccnc(NCCOCCNC(=O)OC(C)(C)C)n2)[nH]n1 [21d, methyl 5-((2-((2-(2-((tert-butoxycarbonyl)amino)ethoxy)ethyl)amino)pyrimidin-4-yl)amino)-1H-pyrazole-3-carboxylate] | 0.1 | 0.5 | 0.1 | 1.5 | 1.4 | 2.5 | 1.0 | 1.0 | 0.4 | 1.0 | 0.5 | 1.6 | 0.1 | 1.8
4 | N#CCc1ccc(Nc2nccc(Nc3cc(C4CC4)[nH]n3)n2)cc1 [compound 1, reference compound] | 1.1 | 8.8 | 6.8 | 4.5 | 5.4 | 8.6 | 5.9 | 7.7 | 5.5 | 1.0 | 4.5 | 9.7 | 4.9 | 1.2
5 | COC(=O)c1cc(Nc2ccnc(NCc3ccc(NC(=O)OC(C)(C)C)cc3)n2)[nH]n1 [21i, methyl 5-((2-((4-((tert-butoxycarbonyl)amino)benzyl)amino)pyrimidin-4-yl)amino)-1H-pyrazole-3-carboxylate] | 0.4 | -0.3 | 0.5 | 0.0 | -0.5 | 0.6 | 1.1 | 0.2 | 0.4 | 0.2 | 0.0 | 3.4 | 0.8 | 0.9

— publication PMC9736855, “Discovery of 3-Amino-1H-pyrazole-Based Kinase Inhibitors to Illuminate the Understudied PCTAIRE Family” (International Journal of Molecular Sciences, 2022)
